2 molecules from ChEMBL document CHEMBL5385978, “Discovery of novel SOS1 inhibitors using machine learning” (RSC Med Chem, 2024) can be followed below.

The test system of the assay is SOS1-KRAS (Homo sapiens), Q07889+P01116 [G12C]. The experiment in a line: Inhibition of his tagged SOS1/GST-tagged KRAS G12C mutant (unknown origin) protein-protein interaction at 25 ug/ml incubated for 2 hrs by HTRF assay relative to control. As to conditions: dose 25.0 µg/ml. In kind it is protein-complex assay. In general terms: Time-resolved FRET reads energy transfer from a long-lived donor to a nearby acceptor.

Molecules are shown by their SMILES.

`CC(C)CCN1CCCN(c2nc(Cc3ccccc3)nc3c2ncn3-c2ccccc2)CC1`: the inhibition (usually the change of the read-out against control, counted positive when it falls) is 2.1%.

`CC(C)OCCCNC1CCN(c2ncc(NC(=O)c3ccccc3)cc2C(=O)O)CC1`: the inhibition turned out to be 6.3%.
